Where “and” joins values, the source holds several entries; their conditions need not be identical. Identical values can stand only once.
Experiments:
EKVX = experiment: NCI anticancer screening (SRB), Non-Small Cell Lung Cancer subpanel; format: cell-based, human; conditions: for GI%: 10.0 µM in one dose
NCI-H23 = experiment: as above; format: cell-based, human; conditions: for GI%: 10.0 µM in one dose
SNB-19 = experiment: NCI anticancer screening (SRB), CNS Cancer subpanel; format: cell-based, human; conditions: for GI%: 10.0 µM in one dose
LOX IMVI = experiment: NCI anticancer screening (SRB), Melanoma subpanel; format: cell-based, human; conditions: for GI%: 10.0 µM in one dose
M14 = experiment: NCI anticancer screening (SRB), Melanoma subpanel; format: cell-based, human; conditions: for GI%: 10.0 µM in one dose
SK-MEL-28 = experiment: NCI anticancer screening (SRB), Melanoma subpanel; format: cell-based, human; conditions: for GI%: 10.0 µM in one dose
UACC-62 = experiment: NCI anticancer screening (SRB), Melanoma subpanel; format: cell-based, human; conditions: for GI%: 10.0 µM in one dose
OVCAR-8 = experiment: NCI anticancer screening (SRB), Ovarian Cancer subpanel; format: cell-based, human; conditions: for GI%: 10.0 µM in one dose
SK-OV-3 = experiment: as above; format: cell-based, human; conditions: for GI%: 10.0 µM in one dose
CAKI-1 = experiment: NCI anticancer screening (SRB), Renal Cancer subpanel; format: cell-based, human; conditions: for GI%: 10.0 µM in one dose
RXF 393 = experiment: as above; format: cell-based, human; conditions: for GI%: 10.0 µM in one dose
SN12C = experiment: as above; format: cell-based, human; conditions: for GI%: 10.0 µM in one dose
TK-10 = experiment: as above; format: cell-based, human; conditions: for GI%: 10.0 µM in one dose
UO-31 = experiment: as above; format: cell-based, human; conditions: for GI%: 10.0 µM in one dose
PC-3 = experiment: NCI anticancer screening (SRB), Prostate Cancer subpanel; format: cell-based, human; conditions: for GI%: 10.0 µM in one dose
MDA-MB-231/ATCC = experiment: NCI anticancer screening (SRB), Breast Cancer subpanel; format: cell-based, human; conditions: for GI%: 10.0 µM in one dose
BT-549 = experiment: as above; format: cell-based, human; conditions: for GI%: 10.0 µM in one dose
COX-2 = target: T1, COX-2 (Ovis aries, UniProt P79208); experiment: biochemical; conditions: read-out: IC50, COX-2 Inhibition
T1 construct: purchased Cayman Chemical 560101
Description: the measured protein at the end of the drug treatment as compared to that at the beginning) indicating a net loss of cells following treatment was calculated from [(Ti − Tz)/Tz] […] = − 50.
Values were calculated for each of these three parameters if the activity level was reached; however, if the effect was not reached or exceeded, that parameter's value was expressed as more or less than the maximum or minimum concentration tested. The log GI50, log TGI, and log LC50 were then determined and defined as the mean of the logs of the individual GI50, TGI, and LC50 values. The lowest values are obtained with the most sensitive cell lines. The compound with […]
2. In vitro cytotoxic activity towards normal fibroblast (WI-38) cells Cell Lines were obtained from the American Type Culture Collection; cells were cultured using DMEM (Invitrogen/Life Technologies) supplemented with 10% FBS (Hyclone), ten ug/ml of insulin (Sigma), and 1% penicillin–streptomycin. Cultures were removed from the incubator into a laminar flow hood, reconstituted with 3 mL of balanced salt solution without phenol red and serum, and then added to an amount equal to 10% of the culture medium volume. […]
medium volume. The absorbance was measured Spectrophotometrically at a wavelength of 570 […]
The ability of the test compounds to inhibit COX-2 was determined using an enzyme immunoassay […]

Bcl-2 = experiment: Apoptotic markers assay, Bcl-2 expression in MCF-7 cells; format: cell-based, human; conditions: MCF-7 cells treated at IC50 concentrations; vs untreated control = 1
Description: (§1) We measured the apoptosis promoter Bax levels, the apoptosis inhibitor Bcl−2, and the apoptosis coordination enzymes caspase-8 and caspase-9 [32].
(§2) The apoptotic marker method was carried out using the reported procedure using MCF-7, the cancer cell line (Supplementary Materials). […]
photomultiplier voltage and for compensation setting adjustment to eliminate spectral overlap between the FL1 and the FL2 signals.
6. Cell cycle analysis
Breast carcinoma (MCF-7) cell was seeded at 2 × 10^5 cells/well density and incubated for 24 h in six-well plates. Foetal bovine serum (10%) was added, and the cells were incubated at 37 °C in an atmosphere of 5% CO2. The medium was replaced with 1% (v/v) DMSO containing 10.0 μM of […]
with 70% ethanol, rinsed with phosphate-buffered saline, and then stained with the DNA fluorochrome propidium iodide (PI) for 15 min at 37 °C. Then, samples were analyzed by flow cytometry using a FACSCalibur (Becton Dickinson). The cell cycle distributions were calculated using CellQuest software (Becton Dickinson).
(§3) 7. Caspase-8 and 9 activation assay
(§4) A breast carcinoma (MCF-7) cell line was obtained from ATCC. […]
allowed cells to grow at 37 °C, stimulated with the compounds to be tested for caspase-8 or caspase-9 and lysed with Cell Extraction Buffer. […]

caspase-9 = experiment: Apoptotic markers assay, caspase-9 level in MCF-7 cells; format: cell-based, human; conditions: MCF-7 cells treated at IC50 concentrations; vs untreated control = 1
Description: as §1, §2, §3, §4
allowed cells to grow at 37 °C, stimulated with the compounds to be tested for caspase-8 or caspase-9 and lysed with Cell Extraction Buffer. Standard Diluent Buffer was used to dilute the lysate over the range of the assay and measure human active caspase-8 or caspase-9 content. (cells are Plated in a density of 1.2-1.8 X 10,000 cells/well in a volume of 100 µL complete growth medium + 100 µL of the tested compound per well in a 96-well plate for 24/48 h before the enzyme assay).
8. Evaluation of Bax and Bcl-2 expressions m RNA isolation was carried out using an RNeasy extraction kit, up to 1 X 107 cells. They were disrupted in Buffer RLT and homogenized. Ethanol was added to the lysate to promote the selective binding of RNA to the RNeasy membrane. Then, the sample was applied to the RNeasy

HER2 = HER2 (Homo sapiens, UniProt P04626); experiment: HER2 tyrosine kinase inhibition assay (ADP-Glo)
HOP-92 = system: HOP-92; design: method as in https://dtp.cancer.gov/dtpstandard/dwindex/index.jsp; conditions: ref https://dtp.cancer.gov/dtpstandard/dwindex/index.jsp; cited from earlier work
HCT-116 = system: HCT-116; design: method as in https://dtp.cancer.gov/dtpstandard/dwindex/index.jsp; conditions: ref https://dtp.cancer.gov/dtpstandard/dwindex/index.jsp; cited from earlier work
[1] = Homo sapiens, five concentrations

T1 sequence (P79208 17-603): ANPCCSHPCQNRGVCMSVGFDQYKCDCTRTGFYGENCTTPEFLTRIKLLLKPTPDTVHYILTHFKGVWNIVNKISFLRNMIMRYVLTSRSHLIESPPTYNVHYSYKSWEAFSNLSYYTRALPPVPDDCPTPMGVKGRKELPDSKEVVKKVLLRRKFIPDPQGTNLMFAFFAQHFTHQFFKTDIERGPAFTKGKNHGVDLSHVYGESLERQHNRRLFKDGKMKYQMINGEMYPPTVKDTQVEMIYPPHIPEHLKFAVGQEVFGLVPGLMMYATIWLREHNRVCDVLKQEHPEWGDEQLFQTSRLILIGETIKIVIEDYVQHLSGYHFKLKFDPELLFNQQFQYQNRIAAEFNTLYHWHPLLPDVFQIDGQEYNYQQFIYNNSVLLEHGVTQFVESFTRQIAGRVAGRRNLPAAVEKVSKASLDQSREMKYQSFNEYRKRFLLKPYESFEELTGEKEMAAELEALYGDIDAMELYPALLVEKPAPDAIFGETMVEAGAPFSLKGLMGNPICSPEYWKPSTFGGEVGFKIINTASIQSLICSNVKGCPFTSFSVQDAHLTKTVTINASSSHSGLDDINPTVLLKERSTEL
HER2, sequence (P04626 23-1255): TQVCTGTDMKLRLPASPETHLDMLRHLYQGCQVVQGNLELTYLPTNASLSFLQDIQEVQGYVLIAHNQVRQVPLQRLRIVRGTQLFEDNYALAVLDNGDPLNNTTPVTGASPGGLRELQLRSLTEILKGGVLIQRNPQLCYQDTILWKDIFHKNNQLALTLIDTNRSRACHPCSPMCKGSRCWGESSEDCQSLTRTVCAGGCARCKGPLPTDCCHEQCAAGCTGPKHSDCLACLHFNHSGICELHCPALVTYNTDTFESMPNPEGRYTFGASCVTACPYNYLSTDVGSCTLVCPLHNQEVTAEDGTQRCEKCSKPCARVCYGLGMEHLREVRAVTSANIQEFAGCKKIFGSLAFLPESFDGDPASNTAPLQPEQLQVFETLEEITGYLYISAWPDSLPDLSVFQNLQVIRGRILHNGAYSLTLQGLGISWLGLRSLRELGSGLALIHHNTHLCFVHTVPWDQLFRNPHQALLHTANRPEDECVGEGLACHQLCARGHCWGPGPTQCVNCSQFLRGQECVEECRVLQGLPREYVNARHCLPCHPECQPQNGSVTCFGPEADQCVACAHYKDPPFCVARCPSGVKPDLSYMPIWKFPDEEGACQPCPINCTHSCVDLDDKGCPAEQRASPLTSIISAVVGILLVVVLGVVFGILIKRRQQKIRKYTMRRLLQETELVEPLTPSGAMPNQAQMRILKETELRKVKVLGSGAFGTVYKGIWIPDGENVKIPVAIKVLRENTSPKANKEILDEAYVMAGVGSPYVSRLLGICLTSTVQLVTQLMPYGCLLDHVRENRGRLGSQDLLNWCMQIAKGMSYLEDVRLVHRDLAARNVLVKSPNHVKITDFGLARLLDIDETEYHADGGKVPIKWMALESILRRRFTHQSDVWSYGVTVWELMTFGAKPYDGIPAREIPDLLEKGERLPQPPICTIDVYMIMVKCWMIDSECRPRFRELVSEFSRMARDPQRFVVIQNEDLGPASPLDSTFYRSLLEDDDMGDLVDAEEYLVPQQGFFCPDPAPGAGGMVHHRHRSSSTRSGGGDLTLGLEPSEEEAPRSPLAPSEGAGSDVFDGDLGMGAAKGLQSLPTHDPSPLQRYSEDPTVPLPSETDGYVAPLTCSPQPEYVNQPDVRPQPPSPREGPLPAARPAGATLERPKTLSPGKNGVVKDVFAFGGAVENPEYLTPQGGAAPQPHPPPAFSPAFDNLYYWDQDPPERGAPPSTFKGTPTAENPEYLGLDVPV

Row | Structure (SMILES) | GI% (EKVX) [%] | GI% (NCI-H23) [%] | GI% (SNB-19) [%] | GI% (LOX IMVI) [%] | GI% (M14) [%] | GI% (SK-MEL-28) [%] | GI% (UACC-62) [%] | GI% (OVCAR-8) [%] | GI% (SK-OV-3) [%] | GI% (CAKI-1) [%] | GI% (RXF 393) [%] | GI% (SN12C) [%] | GI% (TK-10) [%] | GI% (UO-31) [%] | GI% (PC-3) [%] | GI% (MDA-MB-231/ATCC) [%] | GI% (BT-549) [%] | IC50 (COX-2) [nM] | Bcl2, Gene Expression (Fold Change) (Bcl-2) [fold change] | Casp9, Gene Expression (Fold Change) (caspase-9) | other results
1 | CS(=O)(=O)Nc1ccc(C(=O)NN=Cc2ccccc2O)cc1 [Compound 7] | 26 | 27 | 32 | 53 | 44 | 37 | 35 | 32 | 42 | 35 | 21 | 23 | 21 | 64 | 38 | 34 | 27 | 20900 ± 820 | 0.201 | 2.99 fold change and 2.990 fold change | IC50 (HER2): 183 ± 11 nM
2 | CCN(CC)c1ccc(C=NNC(=O)c2ccc(NS(C)(=O)=O)cc2)c(O)c1 [Compound 8] | 84 | 77 | 65 | 100 | 100 | 77 | 100 | 88 | 66 | 81 | > 100 | 69 | 52 | 87 | 68 | 62 | 88 | 12800 ± 510 | 0.232 | 3.776 fold change | GI50 (EKVX; [1]): 386 nM; GI50 (NCI-H23; [1]): 1160 nM; GI50 (SNB-19; [1]): 831 nM; GI50 (LOX IMVI; [1]): 209 nM; GI50 (M14; [1]): 351 nM; GI50 (SK-MEL-28; [1]): 381 nM; GI50 (UACC-62; [1]): 375 nM; GI50 (OVCAR-8; [1]): 312 nM; GI50 (SK-OV-3; [1]): 450 nM; GI50 (CAKI-1; [1]): 464 nM; GI50 (RXF 393; [1]): 1040 nM; GI50 (SN12C; [1]): 603 nM; GI50 (TK-10; [1]): 1050 nM; GI50 (UO-31; [1]): 346 nM; GI50 (PC-3; [1]): 368 nM; GI50 (MDA-MB-231/ATCC; [1]): 425 nM; GI50 (BT-549; [1]): 569 nM; IC50 (HER2): 464 ± 18 nM
3 | C#Cc1cccc(Nc2ncnc3cc(OCCOC)c(OCCOC)cc23)c1 [Erlotinib, erlotinib] | – | – | – | – | – | – | – | – | – | – | – | – | – | – | – | – | – | – | – | – | GI50 (HOP-92): 3980 nM; GI50 (HCT-116): 6310 nM
4 | COc1cc2ncnc(Nc3ccc(F)c(Cl)c3)c2cc1OCCCN1CCOCC1 [Gefitinib, gefitinib] | – | – | – | – | – | – | – | – | – | – | – | – | – | – | – | – | – | – | – | – | GI50 (HOP-92): 316 nM; GI50 (HCT-116): 3160 nM

Reference: article PMC11728000, “Antitumor Activity and Multi-Target Mechanism of Phenolic Schiff Bases Bearing Methanesulfonamide Fragments: Cell Cycle Analysis and a Molecular Modeling Study” (International Journal of Molecular Sciences, 2024)
